Laboratory results from patent publication US20190159455A1 (priority 2016, published 2019).
Where two headings read alike, the source gives them in different places.

Tested on: Phytophthora infestans(Phytin)
Type: cell-based
Details: 7 days after inoculation

Structure (SMILES) | Observed efficacy (1 ppm) | Observed efficacy (4 ppm)
O=C(NCCc1ncc(C(F)(F)F)cc1Cl)c1ccccc1C(F)(F)F [Fluopyram, fluopyram] | 10 | –
c1ccc(-c2noc(-c3cccs3)n2)cc1 [Tioxazafen, tioxazafen] | – | 7
